# Calls of active or inactive are those of the source.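 Rule for the calls: active = mean EC50 below 10 µM; inactive = the rest.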
# Biological target: Apelin receptor (Homo sapiens) (UniProt P35414)
# Assay: apelin receptor activator analogs – cell-based, luminescence, set 2, SAR follow-up (AID 488985)
# Conditions: CHO-K1 AGTRL-1 PathHunter beta-arrestin
# Chain of Apelin receptor (Homo sapiens) (P35414 whole entry, looked up): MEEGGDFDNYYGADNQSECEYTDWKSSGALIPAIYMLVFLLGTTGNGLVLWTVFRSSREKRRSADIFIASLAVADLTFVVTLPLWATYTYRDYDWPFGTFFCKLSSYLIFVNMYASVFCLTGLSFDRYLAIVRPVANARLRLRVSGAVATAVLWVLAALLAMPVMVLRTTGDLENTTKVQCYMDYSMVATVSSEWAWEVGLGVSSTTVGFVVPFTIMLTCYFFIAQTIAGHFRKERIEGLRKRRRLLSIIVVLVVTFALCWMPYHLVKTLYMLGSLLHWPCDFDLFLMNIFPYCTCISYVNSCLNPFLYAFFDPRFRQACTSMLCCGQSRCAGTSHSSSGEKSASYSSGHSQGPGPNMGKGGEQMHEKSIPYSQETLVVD
row,EC50,Structure (SMILES)
1,inactive,CCOc1cc2[nH]c(=S)n(CCN3CCCCC3CC)c(=O)c2cc1OCC (configuration not stated)
2,4.2 µM,CC1=CC(=O)C(C(C)(C)C)=C/C1=N/OS(=O)(=O)c1ccccc1
3,> 79 µM (inactive),CCN1C(=O)/C(=C/C=C2/Sc3ccccc3N2CC)SC1=S
4,inactive,CCOc1cc2[nH]c(=S)n(CCCC(=O)NCc3ccccn3)c(=O)c2cc1OCC
5,> 79 µM (inactive),Cc1cc(O)c(C2CCCCC2)cc1N=O
6,> 79 µM (inactive),CCc1nnc(NC(=O)CSc2nc3cccnc3n2Cc2ccccc2)s1
7,> 79 µM (inactive),CCN1C(=O)/C(=C/C=C2/SC(c3ccccc3)=C(c3ccccc3)N2CC)SC1=S
8,> 79 µM (inactive),CCOc1ccc(S(=O)(=O)Nc2nc(-c3ccccc3)cs2)cc1
9,> 79 µM (inactive),CCOc1cc2[nH]c(=S)n(CCN3CCC(C)CC3)c(=O)c2cc1OCC
10,inactive,CCCCN(C)CCn1c(=S)[nH]c2cc(OCC)c(OCC)cc2c1=O
11,11.9 µM,CC1=C/C(=N/OS(=O)(=O)c2ccccc2)C(C(C)C)=CC1=O
12,4.42 µM,CCN1C(c2ccccc2)=C(c2ccccc2)S/C1=C\C=C1/SC(=S)N(C)C1=O
13,13.1 µM,CC(C)C1=CC(=NOS(=O)(=O)c2ccccc2)C=C(C(C)C)C1=O
14,6.07 µM,CC1=CC(=NOS(=O)(=O)c2ccccc2)C(C)=CC1=O
15,> 79 µM (inactive),Cc1cc(C)n2nc3nc(N4CCCCC4)nc(-c4ccccc4)c3c2n1
16,inactive,CCc1nnc(NC(=O)CSc2nc3cccnc3n2C2CCCCC2)s1
17,> 79 µM (inactive),CC1=CC(=O)C=C/C1=N/OS(=O)(=O)c1ccc(C)cc1
